Results published in patent US6204293A, “Inhibitors of protein isoprenyl transferases” (University of Pittsburgh, priority 1998, dated 2001).
Counter-ions that a name gives are not always drawn.

target: T1, Rat brain protein farnesyltransferase (Rattus norvegicus, UniProt Q02293+Q04631); experiment: % inhibition of farnesylation, scintillation proximity assay with biotin-K Ras B fragment; assay type: biochemical; conditions: Table 1; 1 × 10^-5 M
T1 construct: Rat brain protein farnesyltransferase activity is measured; from tissue; host or cells: rat brain
T1 sequence (Q02293 whole entry, the tested form may be a part, one chain of several): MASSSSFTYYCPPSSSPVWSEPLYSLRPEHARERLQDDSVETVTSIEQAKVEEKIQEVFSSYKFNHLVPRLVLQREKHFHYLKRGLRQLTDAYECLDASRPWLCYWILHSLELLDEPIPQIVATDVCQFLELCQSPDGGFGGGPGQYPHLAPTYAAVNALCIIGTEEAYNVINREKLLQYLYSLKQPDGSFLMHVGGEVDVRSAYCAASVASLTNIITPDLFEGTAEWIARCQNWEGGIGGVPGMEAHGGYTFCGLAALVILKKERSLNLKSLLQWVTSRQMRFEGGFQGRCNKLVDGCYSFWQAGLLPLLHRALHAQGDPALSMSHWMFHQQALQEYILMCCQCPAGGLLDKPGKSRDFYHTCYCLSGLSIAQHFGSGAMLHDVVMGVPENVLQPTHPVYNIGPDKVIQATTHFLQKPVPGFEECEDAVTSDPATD
Outline: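 Rat brain enzyme, purified through three steps, in a scintillation proximity assay kit with biotin-K Ras B fragment substrate at 0.1 mM final. Value is % inhibition of farnesylation.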

First: CSCC[C@H](NC(=O)c1ccc(CNc2nnc(C)s2)cc1-c1ccccc1)C(=O)O [Example 371]
Second: CSCC[C@H](NC(=O)c1ccc(CNC(CO)C(O)c2ccccc2)cc1-c1ccccc1)C(=O)O (stereo partly drawn) [Example 713]
The “% inhibition at 1 × 10^-5 M” value of the first is higher: 66% for the first, 40% for the second.

For COc1cc(Cl)ccc1C(=O)Nc1ccc(C(=O)N[C@@H](CCSC)C(=O)O)c(-c2ccccc2)c1 [Example 753], the “% inhibition at 1 × 10^-5 M” value was 55%.

same assay, conditions: Table 2; 1 × 10^-6 M

Compared with CSCC[C@H](NC(=O)c1ccc(CN(Cc2ccccc2)c2ccccc2Cl)cc1-c1ccccc1C)C(=O)O [Example 846], CSCC[C@H](NC(=O)c1ccc(CN(Cc2ccccc2)c2ccccc2C(C)=O)cc1-c1ccccc1C)C(=O)O [Example 844] is higher in “% inhibition at 1 × 10^-6 M” value: 85% for the first, 92% for the second.

First: Cc1ccccc1-c1cc(CN(C2CC2)C(C)(C)CC2CCCCC2)ccc1C(=O)N[C@@H](CCS(C)(=O)=O)C(=O)O [Example 320]
Second: CSCC[C@H](NC(=O)c1ccc(CN(C(C)C)C2(CC3CCCCC3)CC2)cc1-c1ccccc1C)C(=O)O [Example 326]
The “% inhibition at 1 × 10^-6 M” value of the first is higher: 93% for the first, 91% for the second.

Compared with CSCC[C@H](NC(=O)c1ccc(CNCc2ccc(N)cc2)cc1-c1ccccc1)C(=O)O [Example 653], CSCC[C@H](NC(=O)c1ccc(CNCCS)cc1-c1ccccc1)C(=O)O [Example 626] is lower in “% inhibition at 1 × 10^-6 M” value: 62% for the first, 61% for the second.

Going from CSCC[C@H](NC(=O)c1ccc(/C=C/c2cncnc2)cc1-c1ccccc1C)C(=O)O [Example 494] to CCc1nnc(NCc2ccc(C(=O)N[C@@H](CCSC)C(=O)O)c(-c3ccccc3C)c2)s1 [Example 723], the “% inhibition at 1 × 10^-6 M” value falls from 96% to 87%.

First: CSCC[C@H](NC(=O)c1ccc(CCCc2ccc3ccccc3c2)cc1-c1ccccc1C)C(=O)[O-].[Li+] [Example 470]
Second: CSCC[C@H](NC(=O)c1ccc(CC(Cc2ccccc2)c2ccccc2)cc1-c1ccccc1C)C(=O)[O-].[Li+] (stereo partly drawn) [Example 572]
The “% inhibition at 1 × 10^-6 M” value of the first is higher: 95% for the first, 91% for the second.

First: CSCCC(NC(=O)c1ccc(CNC(CO)c2ccccc2)cc1-c1ccccc1)C(=O)O (stereo not drawn) [Example 658]
Second: CSCC[C@H](NC(=O)c1ccc(CNc2ccccc2N2CCCCC2)cc1-c1ccccc1)C(=O)O [Example 673]
The “% inhibition at 1 × 10^-6 M” value of the first is higher: 73% for the first, 59% for the second.

Compared with CSCC[C@H](NC(=O)c1ccc(CNc2ccc(OC(F)(F)F)cc2)cc1-c1ccccc1)C(=O)O [Example 691], CSCC[C@H](NC(=O)c1ccc(CN(C(C)C)C(C)(C)Cc2ccccc2)cc1-c1ccccc1C)C(=O)O [Example 317] is higher in “% inhibition at 1 × 10^-6 M” value: 34% for the first, 54% for the second.

First: CSCC[C@H](NC(=O)c1ccc(CN(C(C)C)C2(CC3CCCCC3)CCC2)cc1-c1ccccc1C)C(=O)O [Example 332]
Second: Cc1ccccc1-c1cc(CNC(C)(C)Cc2ccccc2)ccc1C(=O)N[C@@H](CCS(C)(=O)=O)C(=O)O [Example 311]
The “% inhibition at 1 × 10^-6 M” value of the first is lower: 26% for the first, 97% for the second.

same assay, conditions: Table 3; 1 × 10^-7 M

Compared with CCCCN(CCCC)C(=O)CNCc1ccc(C(=O)N[C@@H](CCSC)C(=O)O)c(-c2ccccc2C)c1 [Example 912], CSCC[C@H](NC(=O)c1ccc(CN(CCC2CCCCC2)C(C)=O)cc1-c1ccccc1C)C(=O)[O-].[Li+] [Example 609] is higher in “% inhibition at 1 × 10^-7 M” value: 85% for the first, 95% for the second.

First: CSCC[C@H](NC(=O)c1ccc(CN(CCC23CC4CC(CC(C4)C2)C3)c2ccccc2)cc1-c1ccccc1C)C(=O)O [Example 511]
Second: CSCC[C@H](NC(=O)c1ccc(NC(=O)CN)cc1-c1ccccc1)C(=O)O [Example 748]
The “% inhibition at 1 × 10^-7 M” value of the first is higher: 82% for the first, 56% for the second.

same assay, conditions: Table 4; 1 × 10^-8 M

First: CSCC[C@H](NC(=O)c1ccc(CN(CCC2CCCCC2)Cc2cncs2)cc1-c1ccccc1C)C(=O)O [Example 986]
Second: CSCC[C@H](NC(=O)c1ccc(CN(C)C(CC2CCCCC2)CC2CCCCC2)cc1-c1ccccc1C)C(=O)O [Example 907]
The “% inhibition at 1 × 10^-8 M” value of the first is higher: 95% for the first, 79% for the second.

Compared with CSCC[C@H](NC(=O)c1ccc(CN(Cc2cncs2)S(=O)(=O)c2ccc(C)cc2)cc1-c1ccccc1C)C(=O)O [Example 877], CSCC[C@H](NC(=O)c1ccc(CN(Cc2ccccc2)c2ccc(Cl)cc2)cc1-c1ccccc1C)C(=O)O [Example 848] is higher in “% inhibition at 1 × 10^-8 M” value: 68% for the first, 87% for the second.

Going from CSCC[C@H](NC(=O)c1ccc(CN2CCC[C@H]2COCC2CCCCC2)cc1-c1ccccc1C)C(=O)O [Example 992] to CCSC[C@H](CC(C)C)NCc1ccc(C(=O)N[C@@H](CCSC)C(=O)O)c(-c2ccccc2C)c1 [Example 905], the “% inhibition at 1 × 10^-8 M” value falls from 93% to 86%.

same assay, conditions: read-out: % inhibition at 0.01 μM (**)

CSCC[C@H](NC(=O)c1ccc(CO[C@H](COC(C)C)CC2CCCCC2)cc1-c1ccccc1C)C(=O)O [Example 1306, N-[4-[(S)-3-Cyclohexyl-1-(1-methylethoxy)prop-2-yloxymethyl]-2-(2-methylphenyl)benzoyl]methionine Lithium Salt] gave an inhibition at 0.01 µM of 85%.

same assay, conditions: read-out: % inhibition at 0.01 μM (**); Table 6; ** footnote 0.01 μM (title: 0.01 mM)

First: CSCC[C@H](NC(=O)c1ccc(CO[C@H](COCC(O)CO)CC2CCCCC2)cc1-c1ccccc1C)C(=O)O (stereo partly drawn) [Example 1347, N-[4-(3-Cyclohexyl-1-(2,3-dihydroxy-1-propoxy)-prop-2-yloxymethyl)-2-(2-methylphenyl)benzoyl]methionine, Lithium Salt]
Second: COC[C@H](CC1CCCCC1)OCc1ccc(C(=O)N[C@@H](CCSC)C(=O)O)c(-c2ccccc2C)c1 [Example 1304, N-[4-(3-Cyclohexyl-1-methoxyprop-2-yloxymethyl)-2-(2-methylphenyl)benzoyl]methionine Lithium Salt]
The inhibition at 0.01 µM of the first is lower: 81% for the first, 90% for the second.

CSCC[C@H](NC(=O)c1ccc(CO[C@H](COC(C)(C)C)CC2CCCCC2)cc1-c1ccccc1C)C(=O)O [Example 1307] showed an inhibition at 0.01 µM of 85%.

same assay, conditions: read-out: % inhibition at 1 × 10^-6 M

Compared with CSCC[C@H](NC(=O)c1ccc(COC2(Cc3ccccc3)CCN(C(=O)OC(C)(C)C)CC2)cc1-c1ccccc1C)C(=O)O [Example 809, N-[4-(1-t-butoxycarbonyl-4-benzylpiperidin-4-yloxymethyl)-2-(2-methylphenyl)benzoyl]methionine lithium salt], CSCC[C@H](NC(=O)c1ccc(OCCC2CCCCC2)cc1-c1ccccc1C)C(=O)O [Example 552, N-[4-(2-cyclohexylethoxy)-2-(2-methylphenyl)benzoyl]methionine, lithium salt] is higher in inhibition at 1 µM: 78% for the first, 88% for the second.

same assay, conditions: read-out: % inhibition at 1 × 10^-6 M; Table 2; 1 × 10^-6 M

First: CSCC[C@H](NC(=O)c1ccc(COCc2ccoc2)cc1-c1ccccc1C)C(=O)O [Example 530, N-[4-(furan-3-ylmethoxymethyl)-2-(2-methylphenyl)benzoyl]methionine litihium salt]
Second: CSCC[C@H](NC(=O)c1ccc(COc2nc3ccccc3s2)cc1-c1ccccc1C)C(=O)O [Example 321, [4-(2-benzothiazolyloxymethyl)-2-(2-methylphenyl)benzoyl]methionine]
The inhibition at 1 µM of the first is higher: 94% for the first, 90% for the second.

Going from CSCC[C@H](NC(=O)c1ccc(OC/C=C(\C)CCC=C(C)C)cc1-c1ccccc1C)C(=O)O [Example 546, N-[4-geranyloxy-2-(2-methylphenyl)benzoyl]methionine, lithium salt] to CSCC[C@H](NC(=O)c1ccc(OCCCC2CCCCC2)cc1-c1ccccc1C)C(=O)O [Example 564, N-[4-(3-cyclohexylpropoxy)-2-(2-methylphenylbenzoyl]methionine, lithium salt], the inhibition at 1 µM rises from 97% to 98%.

same assay, conditions: read-out: % inhibition at 1 × 10^-7 M

Compared with CSCC[C@H](NC(=O)c1ccc(CSCCc2ccccc2)cc1-c1ccccc1C)C(=O)O [Example 562, N-[4-(2-phenyl)ethylthiomethyl-2-(2-methylphenyl)benzoyl]methionine, lithium salt], CSCC[C@H](NC(=O)c1ccc(COc2ccc(Oc3ccccc3)cc2)cc1-c1ccccc1C)C(=O)O [Example 795, N-[4-(4-phenoxyphenoxymethyl)-2-(2-methylphenyl)benzoyl]methionine lithium salt] is lower in inhibition at 0.1 µM: 95% for the first, 87% for the second.

Going from CSCC[C@H](NC(=O)c1ccc(COCC2CCCCC2)cc1-c1ccccc1C)C(=O)O [Example 585, N-[4-(cyclohexylmethoxymethyl)-2-(2-methylphenyl)benzoyl]methionine lithium salt] to CSCC[C@H](NC(=O)c1ccc(COCc2cnc(-c3cccc(Cl)c3)o2)cc1-c1ccccc1C)C(=O)O [Example 893, N-[4-(2-(3-chlorophenyl)oxazol-5-ylmethoxymethyl)-2-(2-methylphenyl)benzoyl]methionine lithium salt], the inhibition at 0.1 µM falls from 96% to 87%.

same assay, conditions: read-out: % inhibition at 1 × 10^-7 M; Table 3; 1 × 10^-7 M

First: CSCC[C@H](NC(=O)c1ccc(CSc2nc(C)cc(C)n2)cc1-c1ccccc1C)C(=O)O [Example 743]
Second: CSCC[C@H](NC(=O)c1ccc(COCCCCc2ccccc2)cc1-c1ccccc1C)C(=O)O [Example 601]
The inhibition at 0.1 µM of the first is lower: 51% for the first, 92% for the second.

same assay, conditions: read-out: % inhibition at 1 × 10^-8 M

For CSCC[C@H](NC(=O)c1ccc(COCCc2ccc(Cl)cc2Cl)cc1-c1ccccc1C)C(=O)O [Example 591, N-[4-(2-(2,4-dichlorophenyl)ethoxymethyl)-2-(2-methylphenyl)benzoyl]methionine lithium salt], the inhibition at 0.01 µM was 82%.

same assay, conditions: read-out: % inhibition at 1 × 10^-8 M; Table 4; 1 × 10^-8 M

First: CSCC[C@H](NC(=O)c1ccc(CO[C@H](CSC(C)(C)C)Cc2ccccc2)cc1-c1ccccc1C)C(=O)O [Example 994, N-[4-(1-t-butylthio-3-phenylprop-2-oxymethyl)-2-(2-methylphenyl)benzoyl]methionine]
Second: CSCC[C@H](NC(=O)c1ccc(CO[C@H](CSC)CC2CCCCC2)cc1-c1ccccc1C)C(=O)O [Example 882, N-[4-(3-Cyclohexyl-1-methylthiopropan-2-yl)oxymethyl-2-(2-methylphenyl)benzoyl]methionine lithium salt]
The inhibition at 0.01 µM of the first is higher: 83% for the first, 79% for the second.
